# How the values were obtained:
# [1] = Measurement of acetal kinetics (rate of acetal hydrolysis in buffered solutions, by absorbance); format: physicochemical
# Source text: To illustrate the rate of cleavage of several example ortho carboxy phenol derived acetals, we synthesized the molecules 1-3 (shown in FIG. 2) and measured the rates of acetal hydrolysis for each at pH 5.2-7.3. • Acetal 1. R′, R=alkyl; and R1, R2, R3, R4=hydrogen • Acetal 2. R′, R=alkyl; R1, R4=hydrogen; R2=carboxyl (carbon-containing group); R3=hydroxyl (heteroatom) • Acetal 3. R′=alkyl; R, R2, R3, R4=hydrogen; and R1=carboxyl (carbon-containing group)
# To determine the rate of acetal hydrolysis, compounds 1-3 were added to buffered solutions (pH 7-8 with 5 mM HEPES, or pH 5-7 with 5 mM acetate) at various pH values and the absorbance of the solution was measured as a function of time (λ=302 nm for 1 and 2 and 310 nm for 3). The rate constant was determined by determining the slope of the line derived from plotting ln[1-((A∞-At)/(A∞-AO))] as a function of time t, where A∞ is absorbance after>3 hours of hydrolysis, At is the absorbance at time t, and AO is the initial absorbance. The half-life of the hydrolysis equals ln[2] divided by the rate constant.
# [2] = system: Hepa mouse hepatoma cells; assay: DNA transfection with crosslinked pCIluc/DW921 complexes, luciferase expression; format: cell-based; conditions: pCIluc 10 μg/mL, DW921 100 μg/mL, 48 h, average of two wells
# Protocol: To a solution of plasmid DNA pCIluc (10 μg/mL, 0.075 mM in phosphate, 2.6 μg/μL pCIluc; prepared according to Danko et al. 1997) in 0.5 mL of 150 mM NaCl and 5 mM TAPS pH 9 was added 100 μg/mL DW921. The complexes were then reacted with glutaraldehyde, periodate oxidized phenyl glucoside (another crosslinker containing a labile bond), or periodate oxidized salicylic galactoside at 1, 2, 4, 8, or 16 μg/mL. The complexes were then added (200 μL) to wells containing Hepa mouse hepatoma cells in Dulbecco's modified Eagle's Media containing 10% fetal bovine serum. The cells were allowed to incubate for 48 h. The cells were then harvested and assayed for luciferase expression as previously reported. The amount of transfection was reported in relative light units and is the average transfection for two separate wells of cells.
structure (smiles),measurement,setting,value
CC(C)CCOC(C)Oc1ccccc1C(=O)O (centres unmarked) [Acetal 1],half-life (minutes) of acetal hydrolysis,[1]; pH 7.3,1.0 min
O=CCCCC=O [glutaraldehyde],Relative Light Units,[2]; 1 μg/mL dialdehyde crosslinker,915 Relative Light Units
same,Relative Light Units,[2]; 2 μg/mL dialdehyde crosslinker,620 Relative Light Units
same,Relative Light Units,[2]; 4 μg/mL dialdehyde crosslinker,"1,400 Relative Light Units"
same,Relative Light Units,[2]; 8 μg/mL dialdehyde crosslinker,590 Relative Light Units
same,Relative Light Units,[2]; 16 μg/mL dialdehyde crosslinker,565 Relative Light Units
CC(C)[C@@H]1CC[C@@H](C)C[C@H]1OCOc1c(C(=O)O)cccc1C(=O)O [Acetal 3],half-life (minutes) of acetal hydrolysis,[1]; pH 5.2,0.22 min
same,half-life (minutes) of acetal hydrolysis,[1]; pH 6.5,4.7 min

# Reference: US20080132689A1, “Labile Linkage for Compound Delivery to a Cell” (priority 2003, published 2008)
